One test relates to T47D cells. Description: Cellular Growth Inhibition Assay for T47D Cells (CellTiter-Glo). The conditions noted are these: 72 hours. Type of test: cell-based, human. In short, it runs like this: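 GI50 values derive from four-parameter regression of CellTiter-Glo 2.0 luminescence, using zero luminescence as baseline. Human breast cancer T47D cells (3000/well; DMEM, 10% FBS, 0.2 units/mL insulin) were exposed for 72 h to compound dilutions at 0.5% DMSO, with dosing starting 24 h after seeding.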
Background: ATP-based viability assays read luminescence as a measure of living cells.

For the next test, the target named is T1, BRD4-BD1 (Homo sapiens, UniProt O60885).
T1 construct: made in house; host or cells: T7 phage grown in an E. coli host derived from the BL21 strain
Briefly: Binding affinity to BRD4-BD1 (bromoKdELECT assay). The note with it: 11-point 3-fold dilution series.

Broadly, the GI50 is the concentration giving 50% growth inhibition. As a reminder, the Kd is the free concentration of one partner at which half of the binding sites on the other are occupied at equilibrium, for simple one-to-one binding. A high value points to lower affinity. On to `CC(C)N(CC1CCN(c2ncc(C(=O)N[C@H]3C(C)(C)[C@H](Oc4ccc(C#N)c(Cl)c4)C3(C)C)cn2)CC1)[C@H]1C[C@H](Oc2cccc(Oc3ccc(C(C)(C)O)cc3-c3cn(C)c(=O)c4[nH]ccc34)c2F)C1` [Compound I-214], for which, in the test with T47D cells (Homo sapiens), the GI50 is under 500 nM. This compound yielded a Kd at BRD4-BD1 of under 50 nM.
For `Cn1cc(-c2cc(N)ccc2Oc2cccc(OCCOC3CCN(c4ncc(C(=O)N[C@H]5C(C)(C)[C@H](Oc6ccc(C#N)c(Cl)c6)C5(C)C)cn4)CC3)c2)c2cc[nH]c2c1=O` [Compound I-62, 2-(4-(2-(3-(4-amino-2-(6-methyl-7-oxo-6,7-dihydro-1H-pyrrolo[2,3-c]pyridin-4-yl)phenoxy)phenoxy)ethoxy)piperidin-1-yl)-N-((1r, 3r)-3-(3-chloro-4-cyanophenoxy)-2,2,4,4-tetramethylcyclobutyl)pyrimidine-5-carboxamide], in that order: 500 to 1500 nM and over 2500 nM.
In turn, `CCS(=O)(=O)Nc1ccc(Oc2cccc(NCCOC3CCN(c4ncc(C(=O)N[C@H]5C(C)(C)[C@H](Oc6ccc(C#N)c(Cl)c6)C5(C)C)cn4)CC3)c2)c(-c2cn(C)c(=O)c3[nH]ccc23)c1` [Compound I-84] yielded a GI50 in the test on T47D cells (Homo sapiens) of under 500 nM. Further, the Kd at BRD4-BD1 was under 50 nM.
The corresponding values for `CCS(=O)(=O)Nc1ccc(Oc2cccc(COC3CCN(c4ncc(C(=O)N[C@H]5C(C)(C)[C@H](Oc6ccc(C#N)c(Cl)c6)C5(C)C)cn4)CC3)c2)c(-c2cn(C)c(=O)c3[nH]ccc23)c1` [Compound I-18, N-((1r, 3r)-3-(3-chloro-4-cyanophenoxy)-2,2,4,4-tetramethylcyclobutyl)-2-(4-((3-(4-(ethylsulfonamido)-2-(6-methyl-7-oxo-6,7-dihydro-1H-pyrrolo[2,3-c]pyridin-4-yl)phenoxy)benzyl)oxy)piperidin-1-yl)pyrimidine-5-carboxamide] are under 500 nM and 500 to 2500 nM.
For `Cn1cc(-c2cc(C(C)(C)O)ccc2Oc2cccc(CCOC3CCN(c4ncc(C(=O)N[C@H]5C(C)(C)[C@H](Oc6ccc(C#N)c(Cl)c6)C5(C)C)cn4)CC3)c2)c2cc[nH]c2c1=O` [Compound I-193], the GI50 in the test on T47D cells was under 500 nM. At BRD4-BD1, the Kd is over 2500 nM.
As to `Cc1ccc(CCCOC2CCN(c3ncc(C(=O)N[C@H]4C(C)(C)[C@H](Oc5ccc(C#N)c(Cl)c5)C4(C)C)cn3)CC2)cc1Oc1ccc(C(C)(C)O)cc1-c1cn(C)c(=O)c2[nH]ccc12` [Compound I-192], the GI50 with T47D cells (Homo sapiens) lay in the range of 500 to 1500 nM. At BRD4-BD1, this compound yielded a Kd of over 2500 nM.
The compound `CCS(=O)(=O)c1ccc(OC(CCCCN2CCN(c3ncc(C(=O)NC4C(C)(C)C(Oc5ccc(C#N)c(Cl)c5)C4(C)C)cn3)CC2)C2CC2)c(-c2cn(C)c(=O)c3[nH]ccc23)c1` (stereo not shown) [Compound I-223, N-[3-(3-chloro-4-cyano-phenoxy)-2,2,4,4-tetramethyl-cyclobutyl]-2-[4-[5-cyclopropyl-5-[4-ethylsulfonyl-2-(6-methyl-7-oxo-1H-pyrrolo[2,3-c]pyridin-4-yl)phenoxy]pentyl]piperazin-1-yl]pyrimidine-5-carboxamide] gave a GI50 in the test on T47D cells (Homo sapiens) of under 500 nM. The compound also gave a dissociation constant (Kd) at BRD4-BD1 of under 50 nM.
Regarding `CCS(=O)(=O)Nc1ccc(Oc2cccc(OCCOC3CCN(c4ncc(C(=O)N[C@H]5C(C)(C)[C@H](Oc6ccc(C#N)c(Cl)c6)C5(C)C)cn4)CC3)c2)c(-c2cn(C)c(=O)c3c2ccn3C)c1` [Compound I-121], the GI50 in the test on T47D cells (Homo sapiens) fell in the range of 500 to 1500 nM. The compound also came in with a Kd on BRD4-BD1 of over 2500 nM.
`Cn1cc(-c2ccccc2Oc2cccc(N3CC(N4CCN(c5ncc(C(=O)N[C@H]6C(C)(C)[C@H](Oc7ccc(C#N)c(Cl)c7)C6(C)C)cn5)CC4)C3)c2)c2cc[nH]c2c1=O` [Compound I-90, N-((1r, 3r)-3-(3-chloro-4-cyanophenoxy)-2,2,4,4-tetramethylcyclobutyl)-2-(4-(1-(3-(2-(6-methyl-7-oxo-6,7-dihydro-1H-pyrrolo[2,3-c]pyridin-4-yl)phenoxy)phenyl)azetidin-3-yl)piperazin-1-yl)pyrimidine-5-carboxamide] had a GI50 in the test with T47D cells (Homo sapiens) of 500 to 1500 nM. Also, the Kd at BRD4-BD1 is over 2500 nM.
In the case of `CCS(=O)(=O)Nc1ccc(Oc2cccc(N3CC(N4CCN(c5ncc(C(=O)N[C@H]6C(C)(C)[C@H](Oc7ccc(C#N)c(Cl)c7)C6(C)C)cn5)CC4)C3)c2)c(-c2cn(C)c(=O)c3[nH]ccc23)c1` [Compound I-75], the GI50 in the test on T47D cells (Homo sapiens) was under 500 nM. Besides, on BRD4-BD1, the Kd lay within 50 to 500 nM.
For `Cn1cc(-c2cc(C(C)(C)O)ccc2Oc2cccc(N3CC(N4CCN(c5ncc(C(=O)N[C@H]6C(C)(C)[C@H](Oc7ccc(C#N)c(Cl)c7)C6(C)C)cn5)CC4)C3)c2F)c2cc[nH]c2c1=O` [Compound I-92, N-((1r, 3r)-3-(3-chloro-4-cyanophenoxy)-2,2,4,4-tetramethylcyclobutyl)-2-(4-(1-(2-fluoro-3-(4-(2-hydroxypropan-2-yl)-2-(6-methyl-7-oxo-6,7-dihydro-1H-pyrrolo[2,3-c]pyridin-4-yl)phenoxy)phenyl)azetidin-3-yl)piperazin-1-yl)pyrimidine-5-carboxamide], in that order: under 500 nM and 50 to 500 nM.
`CCS(=O)(=O)Nc1ccc(Oc2cccc(OCCOC3CCN(c4ncc(C(=O)N[C@H]5C(C)(C)[C@H](Oc6ccc(C#N)c(Cl)c6)C5(C)C)cn4)CC3)n2)c(-c2cn(C)c(=O)c3[nH]ccc23)c1` [Compound I-47, N-((1r, 3r)-3-(3-chloro-4-cyanophenoxy)-2,2,4,4-tetra-methylcyclobutyl)-2-(4-(2-((6-(4-(ethylsulfonamido)-2-(6-methyl-7-oxo-6,7-dihydro-1H-pyrrolo[2,3-c]pyridin-4-yl)phenoxy)pyridin-2-yl)oxy)ethoxy)piperidin-1-yl)pyrimidine-5-carboxamide]: the Kd at BRD4-BD1 was over 2500 nM.
Take `CCS(=O)(=O)Nc1ccc(Oc2cccc(OCCOCCOCCOCCOCCN(C)c3ncc(C(=O)N[C@H]4C(C)(C)[C@H](Oc5ccc(C#N)c(Cl)c5)C4(C)C)cn3)c2)c(-c2cn(C)c(=O)c3[nH]ccc23)c1` [Compound I-3]: on BRD4-BD1, the Kd was under 50 nM.
`CCS(=O)(=O)Nc1ccc(Oc2cccc(N(C)C3CN(CC4CCN(c5ncc(C(=O)NC6C(C)(C)C(Oc7ccc(C#N)c(Cl)c7)C6(C)C)cn5)CC4)C3)c2)c(-c2cn(C)c(=O)c3[nH]ccc23)c1` (stereo not shown) [Compound I-39]: the Kd at BRD4-BD1 is under 50 nM.
In the case of `CCS(=O)(=O)Nc1ccc(Oc2cccc(OCCOCCOC3CCN(c4ncc(C(=O)N[C@H]5C(C)(C)[C@H](Oc6ccc(C#N)c(Cl)c6)C5(C)C)cn4)CC3)c2)c(-c2cn(C)c(=O)c3[nH]ccc23)c1` [Compound I-13], on BRD4-BD1, the Kd was 500 to 2500 nM.
The same measure, in the same setting: as for `CCS(=O)(=O)Nc1ccc(Oc2cccc(OCCOC3CCN(c4ccc(C(=O)N[C@H]5C(C)(C)[C@H](Oc6ccc(C#N)c(Cl)c6)C5(C)C)nn4)CC3)c2)c(-c2cn(C)c(=O)c3[nH]ccc23)c1` [Compound I-11], the figure is 50 to 500 nM; as for `CCS(=O)(=O)Nc1ccc(Oc2cccc(OCCN(C)c3ncc(C(=O)N[C@H]4C(C)(C)[C@H](Oc5ccc(C#N)c(Cl)c5)C4(C)C)cn3)c2)c(-c2cn(C)c(=O)c3[nH]ccc23)c1` [Compound I-1, N-((1r, 3r)-3-(3-chloro-4-cyanophenoxy)-2,2,4,4-tetramethylcyclobutyl)-2-((2-(3-(4-(ethylsulfonamido)-2-(6-methyl-7-oxo-6,7-dihydro-1H-pyrrolo[2,3-c]pyridin-4-yl)phenoxy)phenoxy)ethyl)(methyl)amino)pyrimidine-5-carboxamide], 50 to 500 nM.

Values taken from patent US20250388605A1, “HETEROBIFUNCTIONAL COMPOUNDS AND METHODS OF TREATING DISEASE” (Halda Therapeutics OpCo, Inc., priority 2022, published 2025).
